Patent EP4678639A1, “SALT OF BENZIMIDAZOLE DERIVATIVE” (JW Pharmaceutical Corporation, priority 2023, dated 2024)
“Also recorded” adds a separate entry of the source. Structures can show the parent of a compound that is named as a salt.

How the values were obtained:
[1] = Photostability test, ultraviolet light (200 W·hr/m2) exposure; details: for After Ultraviolet Light Exposure (200 W hr/m2)(%) Degradant / After Ultraviolet Light Exposure (200 W hr/m2)(%) Total Related substances: Table 10, UV 200 W·hr/m2, PE bag; for Change (%) Degradant: Table 10, after UV exposure vs initial; for Initial (%) Degradant / Initial (%) Total Related substances: Table 10, initial
Procedure: (§1) A photostability comparative test was conducted on each of the above-mentioned prepared tegoprazan acid addition salts. The test was conducted by exposing the sample to light with an energy of 200 W hr/m^2 of ultraviolet light and 1.2 Mlux hr of visible light in accordance with The International Council for Harmonisation of Technical Requirements for Pharmaceuticals for Human Use (ICH) guideline, with the samples packaged in a single PE bag and spread thinly enough to ensure exposure to the light source, taking humidity stability into consideration. The purity of the acid addition salts and the change in the amount of degradants at the initial time point and after exposure to ultraviolet light or visible light were measured by HPLC.

[2] = Photostability test, visible light (1.2 Mlux·hr) exposure; details: for Change (%) Degradant: Table 11, after exposure vs initial; for Initial (%) Degradant / Initial (%) Total Related substances: Table 11, initial; for After (%) Degradant / After (%) Total Related substances: Table 11 under heading Visible Light (1.2 Mlux-hr) Exposure Test
Procedure: as §1

[3] = Solid-state stress stability test (temperature 60 °C); details: for After 1 Month (%) Degradant / After 1 Month (%) Total Related substances / Change (%) Degradant: 60 °C; for Change (%) Degradant: 1 month vs initial; for Initial (%) Degradant / Initial (%) Total Related substances: Table 8, initial
[4] = Solid-state stress stability test (humidity 90 % RH); details: for absorb moisture and deliquesce / melted / Remarks: 90 % RH; for Remarks: 1 month, state of the solid; for Initial (%) Degradant / Initial (%) Total Related substances: Table 9, initial
Procedure: (§2) Operation and Calculation: The blank solution, standard solution, and test solution were sequentially tested under the instrument operating conditions according to the liquid chromatography method in the General Test Methods of the 12th Edition of the Korean Pharmacopoeia, and the amount of related substances was calculated using the following equation. Amount of each related; substance (%) = (AT)/(AS) × (CS)/(CT) × (Molecular weight; of the sample)/(Molecular weight; of the standard; product) × P × (1)/(RR; F) [formula] AT = Area of each related substance peak obtained from the test solution AS = Area of the tegoprazan peak obtained from the standard solution CS = Concentration of standard solution (mg/mL) CT = Concentration of test solution (mg/mL) P = Purity/Assay/Potency (%) of standard product RRF = Relative response factor (1.0)
(§3) A solid-state stability comparative test was conducted on each of the above-mentioned prepared tegoprazan acid addition salts. The stability comparative test was conducted for 1 month under the conditions shown in Table 6 below in accordance with The International Council for Harmonisation of Technical Requirements for Pharmaceuticals for Human Use (ICH) guideline, and the purity of the acid addition salt, total related substances, and the content of degradants were measured by HPLC at the initial time point and after 1 month. Total related substances and degradants were measured according to the related substance test method (HPLC).
3) Stress Stability (humidity 90 % RH)

[5] = Solid-state accelerated stability test (40 ± 2 °C/RH 75 ± 5 %); details: for Change (%) Degradant: 1 month vs initial; for Initial (%) Degradant: degradant of Formula 4
Procedure: as §2, §3

[6] = Liquid stability comparative test (20 mg/mL in purified water, 40 °C, 24 hours, HPLC); assay type: physicochemical; details: for After 24 hours Purity (%) / After 24 hours Degradant (%): 40 °C; for solid precipitation / solution state: stored at 40 °C for 24 hours
Procedure: The analysis conditions are as follows.
Each sample was dissolved in purified water to prepare a solution with a concentration of 20 mg/mL, stored at an external temperature of 40 °C, and analyzed by HPLC at the initial time point and after 24 hours to measure purity, and the change in the generated degradant (Formula 4) was measured. The analysis of total related substances and degradants was performed by taking a liquid from a solution prepared at a concentration of 20 mg/mL, diluting it to a concentration of 4 mg/mL with the diluent of the related substance test method (HPLC), and measuring it as a test solution, and analyzing it according to the related substance test method (HPLC).

[7] = 40 ± 2 °C / RH 75 ± 5 %, 1 month
[8] = 20 mg/mL in purified water, initial time point
[9] = degradant of Formula 4, 20 mg/mL in purified water

With Cc1nc2c(O[C@H]3CCOc4cc(F)cc(F)c43)cc(C(=O)N(C)C)cc2[nH]1 [Phosphate Salt] the “After Ultraviolet Light Exposure (200 W hr/m2)(%) Degradant” value [1] was 0.096%, the “After Ultraviolet Light Exposure (200 W hr/m2)(%) Total Related substances” value [1] was 0.277% and the “Change (%) Degradant” value [1] was 0.011%. For the same compound, the “Initial (%) Degradant” value [1] was 0.085%, the “Initial (%) Total Related substances” value [1] was 0.254% and the “Change (%) Degradant” value [2] was 0.055%. The “Initial (%) Degradant” value [2] was 0.085%, the “Initial (%) Total Related substances” value [2] was 0.254% and the “After (%) Degradant” value [2] was 0.140%. For the same compound, the “After (%) Total Related substances” value [2] was 0.449%, the “After 1 Month (%) Degradant” value [3] was 1.668% and the “After 1 Month (%) Total Related substances” value [3] was 2.423%. The “Change (%) Degradant” value [3] was 1.583%, the “Initial (%) Degradant” value [3] was 0.085% and the “Initial (%) Total Related substances” value [3] was 0.254%. The “absorb moisture and deliquesce / melted” value [4] was “absorb moisture and deliquesce”, the Remarks [4] was “Melted” and the “Initial (%) Degradant” value [4] was 0.085%. For the same compound, the “Initial (%) Total Related substances” value [4] was 0.254%, the “After 1 Month (%) Degradant” value [5, 7] was 0.205% and the “After 1 Month (%) Purity” value [5, 7] was 99.6%. For the same compound, the “After 1 Month (%) Total Related substances” value [5, 7] was 0.327%, the “Change (%) Degradant” value ([5]; 40 ± 2 °C / RH 75 ± 5 %) was 0.120% and the “Initial (%) Purity” value ([5]; Table 7, initial) was 99.7%. For the same compound, the “Initial (%) Total Related substances” value ([5]; Table 7, initial) was 0.254%, the “Initial (%) Degradant” value ([5]; Table 7, initial) was 0.085% and the “After 24 hours Purity (%)” value ([6]; 20 mg/mL in purified water) was “Solid precipitated”. The “Initial Purity (%)” value [6, 8] was 99.97%, the “After 24 hours Degradant (%)” value [6, 9] was “Solid precipitated” and the “Initial Degradant (%)” value ([6]; degradant of Formula 4, 20 mg/mL in purified water, initial time point) was 0.010%. For the same compound, the “solid precipitation / solution state” value [6] was “solid precipitation”.
In the case of Cc1nc2c(O[C@H]3CCOc4cc(F)cc(F)c43)cc(C(=O)N(C)C)cc2[nH]1 [Pidolate Salt], the “After Ultraviolet Light Exposure (200 W hr/m2)(%) Degradant” value [1] is reported as 0.020%, the “After Ultraviolet Light Exposure (200 W hr/m2)(%) Total Related substances” value [1] is reported as 0.266% and the “Change (%) Degradant” value [1] is reported as 0.019%. For the same compound, the “Initial (%) Degradant” value [1] was 0.001%, the “Initial (%) Total Related substances” value [1] was 0.145% and the “Change in Quality (%) Light (Ultraviolet) Degradant” value ([1]; Table 12 summary) was 0.019%. The “Change in Quality (%) Light (Ultraviolet) Purity” value ([1]; Table 12 summary) was 0.121%, the “Change (%) Degradant” value [2] was 0.067% and the “Initial (%) Degradant” value [2] was 0.001%. For the same compound, the “Initial (%) Total Related substances” value [2] was 0.145%, the “After (%) Degradant” value [2] was 0.068% and the “After (%) Total Related substances” value [2] was 0.463%. For the same compound, the “Change in Quality (%) Light (Visible) Degradant” value ([2]; Table 12 summary) was 0.067%, the “After 1 Month (%) Degradant” value [3] was 0.088% and the “After 1 Month (%) Total Related substances” value [3] was 0.353%. For the same compound, the “Change (%) Degradant” value [3] was 0.087%, the “Initial (%) Degradant” value [3] was 0.001% and the “Initial (%) Total Related substances” value [3] was 0.145%. The “Change in Quality (%) 60 °C (4 weeks) Degradant” value ([3]; Table 12 summary) was 0.087%, the “Change in Quality (%) 60 °C (4 weeks) Purity” value ([3]; Table 12 summary) was -0.208% and the Remarks [4] was “Melted”. The “absorb moisture and deliquesce / melted” value ([4]; listed as pidolate) was “deliquesced”, the “absorb moisture and deliquesce / melted” value ([4]; listed as pidolate salt) was “absorb moisture and deliquesce; also recorded: melted” and the “Initial (%) Degradant” value [4] was 0.001%. For the same compound, the “Initial (%) Total Related substances” value [4] was 0.145%, the “Change in Quality (%) 90 % RH (4 weeks) Degradant” value ([4]; Table 12 summary) was “Melted” and the “Change in Quality (%) 90 % RH (4 weeks) Purity” value ([4]; Table 12 summary) was “Melted”. For the same compound, the “After 1 Month (%) Degradant” value [5, 7] was 0.003%, the “After 1 Month (%) Total Related substances” value [5, 7] was 0.146% and the “Change (%) Degradant” value ([5]; 40 ± 2 °C / RH 75 ± 5 %) was 0.002%. For the same compound, the “Initial (%) Total Related substances” value ([5]; Table 7, initial) was 0.145%, the “Initial (%) Degradant” value ([5]; Table 7, initial) was 0.001% and the “Change in Quality (%) Accelerated (4 weeks) Degradant” value ([5]; Table 12 summary) was 0.002%. The “Change in Quality (%) Accelerated (4 weeks) Purity” value ([5]; Table 12 summary) was -0.001%, the “purity change after 1 month” value ([5]; accelerated stability) was at most 0.1% and the “After 24 hours Purity (%)” value ([6]; 20 mg/mL in purified water) was “Solid precipitated”. For the same compound, the “Initial Purity (%)” value [6, 8] was 99.98%, the “After 24 hours Degradant (%)” value [6, 9] was “Solid precipitated” and the “solid precipitation / solution state” value ([6]; listed as pidolate) was “a solid precipitated”. For the same compound, the “solid precipitation / solution state” value ([6]; listed as pidolate salt) was “solid precipitation; also recorded: solids were precipitated”.
